For assay [1], the target named is T1, oxytocin receptors (Rattus norvegicus, UniProt P70536).
T1 construct: The uteri are dissected out, cleaned of fat and connective tissues; from tissue; host or cells: uterus of DES-treated female Sprague-Dawley rats
T1 sequence (P70536 1-388): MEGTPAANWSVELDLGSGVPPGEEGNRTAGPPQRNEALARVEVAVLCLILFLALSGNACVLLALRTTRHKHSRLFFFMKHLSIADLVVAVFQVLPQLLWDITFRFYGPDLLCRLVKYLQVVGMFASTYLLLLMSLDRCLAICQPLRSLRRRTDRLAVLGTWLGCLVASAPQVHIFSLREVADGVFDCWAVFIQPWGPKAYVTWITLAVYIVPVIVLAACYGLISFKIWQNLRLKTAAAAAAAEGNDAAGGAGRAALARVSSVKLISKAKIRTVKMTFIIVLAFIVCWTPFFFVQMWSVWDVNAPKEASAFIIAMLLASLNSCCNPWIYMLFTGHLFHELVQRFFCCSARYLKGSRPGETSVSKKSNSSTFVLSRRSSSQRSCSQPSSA
The assay can be described thus: Oxytocin Receptor Binding. To be noted: for IC50: 1.0 nM [^3 H]OT, 60 min., 22° C. Also noted: species or system Sprague-Dawley rat. Here is the method:
Oxytocin Receptor Binding
Female Sprague-Dawley rats weighing approximately 200-250 g are injected intramuscularly (i.m.) with 0.3 mg/kg of body weight of diethylstilbestrol (DES). The rats are sacrificed 18 hours later under pentobarbital anesthesia. The uteri are dissected out, cleaned of fat and connective tissues and rinsed in 50 ml of normal saline. The tissue pooled from six rats is homogenized in 50 ml of […] TriS.HCl, containing 0.5 mM dithiothreitol and 1.0 mM EDTA, adjusted to pH 7.4, using a polytron at setting 6 with three passes of 10 sec each. The homogenate is passed through two (2) layers of cheesecloth and the filtrate contrifuged at 1000×g for 10 min. The clear supernatant is removed and recentrifuged at 165,000×g for 30 min. The resulting pellet containing the oxytocin receptors is resuspended in 50.0 mM Tris.HCl containing 5.0 mM MgCl2 at pH 7.4, to give a protein concentration of 2.5 mg/ml of tissue suspension. This preparation is used in subsequent binding assays with [^3 H]Oxytocin.
Binding of 3,5-[^3 H]Oxytocin ([^3 H]OT) to its receptors is done in microtiter plates using [^3 H]OT, at various concentrations, in an assay buffer of 50.0 mM Tris.HCl, pH 7.4 and containing 5.0 mM MgCl2, and a mixture of protease inhibitors: BSA, 0.1 mg; aprotinin, 1.0 mg; 1,10-phenanthroline, 2.0 mg; […], 10.0 mg; and PMSF, 0.3 mg per 100 ml of buffer solution. Non-specific binding is determined in the presence of 1.0 uM unlabeled OT. The binding reaction is terminated after 60 min., at 22° C., by rapid filtration through glass fiber filters using a Brandel® cell harvester (Biomedical Research and Development Laboratories, Inc., Gaithersburg, Md.). Competition experiments are conducted at equilibrium using 1.0 nM [^3 H]OT and varying the concentration of the displacing agents. The concentrations of agent displacing 50% of [^3 H]OT at its sites (IC50) are calculated by a computer assisted LUNDON-2 program (LUNDON SOFTWARE INC., Ohio, U.S.A.).

Assay [2] has as its target T2, V1 Receptor Subtype in Human Platelet (Homo sapiens, UniProt P37288).
T2 construct: from tissue; host or cells: human platelets (platelet rich plasma from Hudson Valley Blood Services)
Description: Binding to Vasopressin V1 Receptor Subtype in Human Platelet Membranes. The note with it: *Binding to V1 Receptor Subtype in Human Platelet. On the procedure: Radioligand Binding Experiments with Human Platelet Membranes
Platelet Source: Hudson Valley Blood Services, Westchester Medical Center, Valhalla, N.Y.
Frozen platelet rich plasma (PRP), received from the Hudson Valley Blood Services are thawed to room temperature. The tubes containing the PRP are centrifuged at 16,000×g for 10 min. at 4° C. and the supernatant fluid discarded. The platelets resuspended in an equal volume of 50.0 mM Tris.HCl, pH 7.5 containing 120 mM NaCl and 20.0 mM EDTA. The suspension is recentrifuged at 16,000×g for 10 min. This washing step is repeated one more time. The wash is discarded and the lysed pellets homogenized in low ionic strength buffer of Tris.HCl, 5.0 mM, pH 7.5 containing 5.0 mM EDTA. The homogenate is centrifuged at 39,000×g for 10 min. The resulting pellet is resuspended in Tris.HCl buffer, 70.0 mM, pH 7.5 and recentrifuged at 39,000×g for 10 min. The final pellet is resuspended in 50.0 mM Tris.HCl buffer pH 7.4 containing 120 mM NaCl and 5.0 mM HCl to give 1.0-2.0 mg protein per ml of suspension.
Binding to Vasopressin V1 Receptor Subtype in Human Platelet Membranes:
In wells of a 96 well format microtiter plate, add 100 μl of 50.0 mM Tris.HCl buffer containing 0.2% BSA and a mixture of protease inhibitors (aprotinin, leupeptin etc.). Then add 20 μl of [^3 H]Ligand: (Manning or Arg^8 Vasopressin), to give final concentrations ranging from 0.01 to 10.0 nM. Initiate the binding by adding 80.0 μl of platelet suspension (approx. 100 μg protein). Mix all reagents by pipetting the mixture up and down a few times. Non-specific binding is measured in the presence of 1.0 μM of unlabeled ligand (Manning or Arg^8 Vasopressin). Let the mixture stand undisturbed at room temperature for ninety (90) min. Upon this time, rapidly filter off the incubate under vacuum suction over GF/B filters, using a Brandel® Harvester. Determine the radioactivity caught on the filter disks by the addition of liquid scintillant and counting in a liquid scintillator

For three molecules, IC50 and inhibition results are on record in patent publication US5719278A, “Tricyclic benzazepine vasopressin antagonists” (American Cyanamid Company, priority 1996, dated 1998).

T2 sequence (P37288 whole entry): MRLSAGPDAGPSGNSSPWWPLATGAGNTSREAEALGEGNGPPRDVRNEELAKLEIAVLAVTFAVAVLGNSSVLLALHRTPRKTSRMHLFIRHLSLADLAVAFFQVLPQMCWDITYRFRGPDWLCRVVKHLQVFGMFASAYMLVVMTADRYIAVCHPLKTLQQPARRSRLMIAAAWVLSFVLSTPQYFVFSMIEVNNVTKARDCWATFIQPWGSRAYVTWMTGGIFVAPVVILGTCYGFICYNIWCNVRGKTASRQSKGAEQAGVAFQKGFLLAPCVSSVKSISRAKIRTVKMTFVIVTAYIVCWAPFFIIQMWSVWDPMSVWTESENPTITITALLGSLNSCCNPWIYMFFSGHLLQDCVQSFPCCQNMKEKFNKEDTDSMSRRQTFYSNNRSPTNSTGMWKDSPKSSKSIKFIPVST

In assay [1], `O=C(Nc1ccc(C(=O)N2CCc3cn[nH]c3-c3sccc32)cc1)c1ccc(F)cc1Cl` [Example 1, N-[4-[(4,5-Dihydropyrazolo[3,4-d]thieno[3,2-b]azepin-6(1H)-yl)carbonyl]phenyl]-2-chloro-4-fluorobenzamide] showed an IC50 of 2.5 µM and an inhibition at 10 µM of 93%.
In the case of `O=C(Nc1ccc(C(=O)N2CCc3cn[nH]c3-c3ncccc32)cc1)c1ccccc1-c1ccccc1` [Example 365, N-[4-[(4,5-Dihydropyrazolo[3,4-d]pyrido[3,2-b]azepin-6(1H)-yl)carbonyl]phenyl][1,1'-biphenyl]-2-carboxamide], the IC50 in assay [2] worked out at 0.101 µM; in assay [1], 2.5 µM. This molecule showed an inhibition at 10 µM in assay [1] of 57%.
The corresponding values for `Cc1ccc(F)cc1C(=O)Nc1ccc(C(=O)N2CCc3c[nH]nc3-c3ncccc32)cc1` [Example 367, N-[4-[4(4,5-Dihydropyrazolo[3,4-d]pyrido[3,2-b]azepin-6(1H)-yl)carbonyl]phenyl]-5-fluoro-2-methylbenzamide] are 0.31 µM, 2.1 µM and 63%.

Broadly, the IC50 is the point on the concentration scale where inhibition reaches its midpoint. The term inhibition denotes the relative decrease from the control value, in per cent.
